Measurements taken from patent US11504382B2, “Tricyclic inhibitors of Hepatitis B virus” (Antios Therapeutics, Inc., priority 2018, dated 2022).
Where two headings read alike, the source gives them in different places.

System: HBV
Experiment: HBV inhibition assay in HepAD38 cells (extracellular HBV DNA by direct qPCR)
Format: cell-based, Hepatitis B virus
Details: 96 hours; for EC50: 8-point dose-response curve, read-out: HBV inh EC50
[1] = Hepatitis B virus, relative to non-treated reference, read-out: Anti HBV Activity (conc μM)
[2] = 0.05 μM, relative to non-treated reference

Molecule	EC50 (Hepatitis B virus) [µM]	inhibition at 0.1 µM [1] [%]	further results
Cc1cc(NC(=O)c2c3c(cn2C)S(=O)(=O)NC2CCN(C(=O)C4(C)COC4)CC2CO3)ccc1F (racemic) [Example E126, Cis-N-(4-fluoro-3-methylphenyl)-2-methyl-8-(3-methyloxetane-3-carbonyl)-5,5a,6,7,8,9,9a,10-octahydro-2H-pyrido[4,3-f]pyrrolo[3,4-b][1,4,5]oxathiazocine-1-carboxamide 4,4-dioxide]	< 1	–	–
Cn1cc2c(c1C(=O)Nc1ccc(F)c(F)c1)OCC1(C)CCCC1NS2(=O)=O (centres unmarked) [Example E29, N-(3,4-difluorophenyl)-2,8a-dimethyl-5a,6,7,8,8a,9-hexahydro-2H,5H-cyclopenta[f]pyrrolo[3,4-b][1,4,5]oxathiazocine-1-carboxamide 4,4-dioxide]	–	< 50	–
Cc1cc(NC(=O)c2c3c(cn2C)S(=O)(=O)N[C@H]2CN(C(=O)C4CCO4)C[C@H]2CO3)ccc1F (stereo partly drawn) [Example E110, (3aR,10aR)—N-(4-fluoro-3-methylphenyl)-7-methyl-2-(oxetane-2-carbonyl)-2,3,3a,4,10,10a-hexahydro-1H,7H-dipyrrolo[3,4-b:3′,4′-f][1,4,5]oxathiazocine-8-carboxamide 5,5-dioxide]	< 1	–	–
CCOC(=O)N1CC2COc3c(cn(C)c3C(=O)Nc3ccc(F)c(C#N)c3)S(=O)(=O)NC2C1 (single isomer, unassigned) [Example E45, Ethyl 8-((3-cyano-4-fluorophenyl)carbamoyl)-7-methyl-3a,4,10,10a-tetrahydro-1H,7H-dipyrrolo[3,4-b:3′,4′-f][1,4,5]oxathiazocine-2(3H)-carboxylate 5,5-dioxide (Chiral 3aS,10aS or 3aR,10aR - Stereochemistry unknown)]	–	–	Anti HBV Activity (conc μM) [2]: A (0.05) (HBV inhibition greater than 50% at the concentration indicated in the table)
Cn1cc2c(c1C(=O)Nc1cc(F)c(F)c(F)c1)OCC1CN(CC(F)(F)F)CC1NS2(=O)=O (stereo not drawn) [Example E73, cis-7-methyl-2-(2,2,2-trifluoroethyl)-N-(3,4,5-trifluorophenyl)-2,3,3a,4,10,10a-hexahydro-1H,7H-dipyrrolo[3,4-b:3′,4′-f][1,4,5]oxathiazocine-8-carboxamide 5,5-dioxide]	–	> 50	–
Cn1cc2c(c1C(=O)Nc1cc(F)c(F)c(F)c1)OCC1CCCC1NS2(=O)=O (racemic) [Example E28, cis (5aR,8aS and 5aS,8aR)-2-methyl-N-(3,4,5-trifluorophenyl)-5a,6,7,8,8a,9-hexahydro-2H,5H-cyclopenta[f]pyrrolo[3,4-b][1,4,5]oxathiazocine-1-carboxamide 4,4-dioxide]	< 1	> 50	–
Ethyl 8-((3-chloro-4-fluorophenyl)carbamoyl)-7-methyl-3a,4,10,10a-tetrahydro-1H,7H-dipyrrolo[3,4-b:3′,4′-f][1,4,5]oxathiazocine-2(3H)-carboxylate 5,5-dioxide (3aR,10aR) [Example E41]	–	–	Anti HBV Activity (conc μM) [2]: A (0.05) (HBV inhibition greater than 50% at the concentration indicated in the table); EC50: < 1 µM
CCOC(=O)N1CC2NS(=O)(=O)c3cn(C)c(C(=O)Nc4cc(F)c(F)c(F)c4)c3OCC2(C)C1 (single isomer, unassigned) [Example E92, Ethyl 7,10a-dimethyl-8-((3,4,5-trifluorophenyl)carbamoyl)-3a,4,10,10a-tetrahydro-1H,7H-dipyrrolo[3,4-b:3′,4′-f][1,4,5]oxathiazocine-2(3H)-carboxylate 5,5-dioxide (Chiral 3aS,10aS or 3aR,10aR - Stereochemistry unknown)]	–	–	EC50: < 1 µM
CCOC(=O)N1CC2COc3c(cn(C)c3C(=O)Nc3ccc(F)c(Cl)c3)S(=O)(=O)NC2C1 (racemic) [Example E15, Cis-Ethyl 8-((3-chloro-4-fluorophenyl)carbamoyl)-7-methyl-3a,4,10,10a-tetrahydro-1H,7H-dipyrrolo[3,4-b:3′,4′-f][1,4,5]oxathiazocine-2(3H)-carboxylate 5,5-dioxide]	< 1	> 50	–
Cc1cc(NC(=O)c2c3c(cn2C)S(=O)(=O)N[C@H]2CN(C(=O)c4ncoc4C)C[C@H]2CO3)ccc1F [Example E113, (3aR,10aR)—N-(4-fluoro-3-methylphenyl)-7-methyl-2-(5-methyloxazole-4-carbonyl)-2,3,3a,4,10,10a-hexahydro-1H,7H-dipyrrolo[3,4-b:3′,4′-f][1,4,5]oxathiazocine-8-carboxamide 5,5-dioxide]	< 1	–	–
Cc1cc(NC(=O)c2c3c(cn2C)S(=O)(=O)NC2CN(c4ccnc(Cl)c4)CC2CO3)ccc1F (stereo not drawn) [Example E76, cis-2-(2-chloropyridin-4-yl)-N-(4-fluoro-3-methylphenyl)-7-methyl-2,3,3a,4,10,10a-hexahydro-1H,7H-dipyrrolo[3,4-b:3′,4′-f][1,4,5]oxathiazocine-8-carboxamide 5,5-dioxide]	< 1	–	inhibition at 0.05 µM (Hepatitis B virus, 0.05 μM, relative to non-treated reference, read-out: Anti HBV Activity (conc μM)): > 50%
Cc1cc(NC(=O)c2c3c(cn2C)S(=O)(=O)NC2CN(C(=O)C4(C)COC4)CCC2CO3)ccc1F (racemic) [Example E136, Cis-N-(4-fluoro-3-methylphenyl)-2-methyl-7-(3-methyloxetane-3-carbonyl)-5,5a,6,7,8,9,9a,10-octahydro-2H-pyrido[3,4-f]pyrrolo[3,4-b][1,4,5]oxathiazocine-1-carboxamide 4,4-dioxide]	< 1	–	–
Cc1cc(NC(=O)c2c3c(cn2C)S(=O)(=O)NC2CN(C(=O)c4ncoc4C)CCC2CO3)ccc1F (racemic) [Example E144, Trans-N-(4-fluoro-3-methylphenyl)-2-methyl-7-(5-methyloxazole-4-carbonyl)-5,5a,6,7,8,9,9a,10-octahydro-2H-pyrido[3,4-f]pyrrolo[3,4-b][1,4,5]oxathiazocine-1-carboxamide 4,4-dioxide]	–	–	EC50: < 1 µM
CCOC(=O)N1CC2NS(=O)(=O)c3cn(C)c(C(=O)Nc4ccc(F)c(C)c4)c3OCC2(C)C1 (single isomer, unassigned) [Example E93, Ethyl 8-((4-fluoro-3-methylphenyl)carbamoyl)-7,10a-dimethyl-3a,4,10,10a-tetrahydro-1H,7H-dipyrrolo[3,4-b:3′,4′-f][1,4,5]oxathiazocine-2(3H)-carboxylate 5,5-dioxide (Chiral 3aS,10aS or 3aR,10aR - Stereochemistry unknown)]	–	–	EC50: < 1 µM
Cc1cc(NC(=O)c2c3c(cn2C)S(=O)(=O)NC2CN(C(=O)C45CC(CO4)C5)CCC2CO3)ccc1F (racemic) [Example E143, Trans-7-(2-oxabicyclo[2.1.1]hexane-1-carbonyl)-N-(4-fluoro-3-methylphenyl)-2-methyl-5,5a,6,7,8,9,9a,10-octahydro-2H-pyrido[3,4-f]pyrrolo[3,4-b][1,4,5]oxathiazocine-1-carboxamide 4,4-dioxide]	–	–	EC50: < 1 µM
Cc1nnc(C(=O)N2C[C@@H]3COc4c(cn(C)c4C(=O)Nc4ccc(F)c(C)c4)S(=O)(=O)N[C@@H]3C2)s1 (relative stereo) [Example E62, cis-N-(4-fluoro-3-methylphenyl)-7-methyl-2-(5-methyl-1,3,4-thiadiazole-2-carbonyl)-2,3,3a,4,10,10a-hexahydro-1H,7H-dipyrrolo[3,4-b:3′,4′-f][1,4,5]oxathiazocine-8-carboxamide 5,5-dioxide]	< 1	–	–
CCOC(=O)N1CC2COc3c(cn(C)c3C(=O)Nc3ccc(F)c(C(F)F)c3)S(=O)(=O)NC2C1 (racemic) [Example E16, Cis-Ethyl 8-((3-(difluoromethyl)-4-fluorophenyl)carbamoyl)-7-methyl-3a,4,10,10a-tetrahydro-1H,7H-dipyrrolo[3,4-b:3′,4′-f][1,4,5]oxathiazocine-2(3H)-carboxylate 5,5-dioxide]	< 1	> 50	–
Cn1cc2c(c1C(=O)Nc1cc(F)c(F)c(F)c1)OCC1CN(C(=O)c3cocn3)CC1NS2(=O)=O (stereo not drawn) [Example E65, cis-7-methyl-2-(oxazole-4-carbonyl)-N-(3,4,5-trifluorophenyl)-2,3,3a,4,10,10a-hexahydro-1H,7H-dipyrrolo[3,4-b:3′,4′-f][1,4,5]oxathiazocine-8-carboxamide 5,5-dioxide]	< 1	–	–
Cn1cc2c(c1C(=O)Nc1ccc(F)c(F)c1)OCC1CCCCN1S2(=O)=O (centres unmarked) [Example E1, N-(3,4-difluorophenyl)-2-methyl-6,7,8,9,9a,10-hexahydro-2H-pyrido[1,2-e]pyrrolo[3,4-b][1,4,5]oxathiazepine-1-carboxamide 4,4-dioxide]	> 1	–	inhibition at 1 µM (Hepatitis B virus, 1 μM, relative to non-treated reference, read-out: Anti HBV Activity (conc μM)): < 50%
CCOC(=O)N1CC[C@H]2NS(=O)(=O)c3cn(C)c(C(=O)Nc4ccc(F)c(F)c4)c3OC[C@H]21 [Example E27, Ethyl (3aR,10aS)-8-((3,4-difluorophenyl)carbamoyl)-7-methyl-2,3,3a,4,10,10a-hexahydro-1H,7H-dipyrrolo[3,4-b:3′,2′-f][1,4,5]oxathiazocine-1-carboxylate 5,5-dioxide]	–	< 50	–
Cn1cc2c(c1C(=O)Nc1cc(F)c(F)c(F)c1)OC[C@@H]1CN(C(=O)c3cocn3)C[C@@H]1NS2(=O)=O [Example E106, (3aR,10aR)-7-methyl-2-(oxazole-4-carbonyl)-N-(3,4,5-trifluorophenyl)-2,3,3a,4,10,10a-hexahydro-1H,7H-dipyrrolo[3,4-b:3′,4′-f][1,4,5]oxathiazocine-8-carboxamide 5,5-dioxide]	< 1	–	–
Cn1cc2c(c1C(=O)Nc1cc(F)c(F)c(F)c1)OCC1CN(C(=O)OC3CO[C@H]4OCC[C@@H]34)CC1NS2(=O)=O (mixture of isomers) [Example E22, cis-(3R,3aS,6aR)-hexahydrofuro[2,3-b]furan-3-yl 7-methyl-8-((3,4,5-trifluorophenyl)carbamoyl)-3a,4,10,10a-tetrahydro-1H,7H-dipyrrolo[3,4-b:3′,4′-f][1,4,5]oxathiazocine-2(3H)-carboxylate 5,5-dioxide]	< 1	> 50	–
